Columns and labels:
[1] = target: Tsr (thiostrepton resistance methyltransferase) (Streptomyces azureus, UniProt P18644, R135A); test: biochemical; type: binding
[2] = target: Tsr (thiostrepton resistance methyltransferase) (Streptomyces azureus, UniProt P18644, R165A); test: biochemical; type: binding
[3] = target: Tsr (thiostrepton resistance methyltransferase) (Streptomyces azureus, UniProt P18644); test: isothermal titration calorimetry, single-set-of-sites fit; type: binding
[4] = target: Tsr (thiostrepton resistance methyltransferase) (Streptomyces azureus, UniProt P18644, N129A); test: biochemical; type: binding
[5] = target: Tsr (thiostrepton resistance methyltransferase) (Streptomyces azureus, UniProt P18644, N129D); test: biochemical
[6] = target: Tsr (thiostrepton resistance methyltransferase) (Streptomyces azureus, UniProt P18644, R165K); test: biochemical
[7] = target: Tsr (thiostrepton resistance methyltransferase) (Streptomyces azureus, UniProt P18644, R135K); test: biochemical

Row | SMILES | Kd [1] [µM] | Kd [2] [µM] | Kd [3] [µM] | Kd [4] [µM] | Kd [5] [µM] | Kd [6] [µM] | Kd [7] [µM]
1 | Nc1ncnc2c1ncn2[C@@H]1O[C@H](CSCC[C@H](N)C(=O)O)[C@@H](O)[C@H]1O [SAH, S-adenosyl-L-homocysteine] | 11 | 20.5 | 24.4 | 16.4 | – | – | –
2 | C[S+](CC[C@H](N)C(=O)O)C[C@H]1O[C@@H](n2cnc3c(N)ncnc32)[C@H](O)[C@@H]1O (stereo partly drawn) [SAM, S-adenosyl-L-methionine] | 614 | 189 | 107 | 493 | 411 | 97.1 | 142
